Source: US8754073B2, “Substituted piperazino-dihydrothienopyrimidines” (Boehringer Ingelheim International GmbH, priority 2007, dated 2014)

biological target: PDE4B (Homo sapiens, UniProt Q07343); test: Scintillation Proximity Assay (SPA) of PDE4B enzyme activity ([H3]-cAMP cleavage); format: biochemical; settings: test substance 1 μM; one-hour incubation of [H3]-cAMP with PDE4B enzyme at 30° C.
Protocol: The inhibitions (in %) at 1 μM of the individual Example substances are given in the following Table of Examples and were determined as follows:
The Scintillation Proximity Assay (SPA) (GE Healthcare, No. TRKQ7090) was carried out by using the different affinities of cyclic 3′-5′-adenosinemonophosphate (cAMP, low affinity) and linear 5′-adenosinemonophosphate (AMP, high affinity) for yttrium silicate scintillator beads. The cAMP specific phosphodiesterase (PDE) PDE4B cleaves the 3′-phosphoester bond of tritium-labelled [H3]-cAMP to form [H3]-5′-AMP. This [H3]-AMP accumulates on the scintillator beads because of its higher affinity for them and causes scintillation events (flashes of light) which are measured in a Wallac Microbeta Scintillation Counter.
The experiment starts with a one-hour incubation of [H3]-cAMP with the PDE4B enzyme in assay buffer at 30° C., in each case once with the Example substance to be tested (in a concentration of 1 μM) and once without the Example substance to be tested.
After this incubation, the reaction is stopped by the addition of the beads. The beads have an opportunity to settle in the next 45 minutes, then the measurement is carried out in the Scintillation Counter. If the substance is capable of inhibiting the enzymatic activity of the PDE4B, less [H3]-AMP is produced during the incubation phase and fewer scintillation events can be measured.

PDE4B, sequence (Q07343 whole entry, species assumed): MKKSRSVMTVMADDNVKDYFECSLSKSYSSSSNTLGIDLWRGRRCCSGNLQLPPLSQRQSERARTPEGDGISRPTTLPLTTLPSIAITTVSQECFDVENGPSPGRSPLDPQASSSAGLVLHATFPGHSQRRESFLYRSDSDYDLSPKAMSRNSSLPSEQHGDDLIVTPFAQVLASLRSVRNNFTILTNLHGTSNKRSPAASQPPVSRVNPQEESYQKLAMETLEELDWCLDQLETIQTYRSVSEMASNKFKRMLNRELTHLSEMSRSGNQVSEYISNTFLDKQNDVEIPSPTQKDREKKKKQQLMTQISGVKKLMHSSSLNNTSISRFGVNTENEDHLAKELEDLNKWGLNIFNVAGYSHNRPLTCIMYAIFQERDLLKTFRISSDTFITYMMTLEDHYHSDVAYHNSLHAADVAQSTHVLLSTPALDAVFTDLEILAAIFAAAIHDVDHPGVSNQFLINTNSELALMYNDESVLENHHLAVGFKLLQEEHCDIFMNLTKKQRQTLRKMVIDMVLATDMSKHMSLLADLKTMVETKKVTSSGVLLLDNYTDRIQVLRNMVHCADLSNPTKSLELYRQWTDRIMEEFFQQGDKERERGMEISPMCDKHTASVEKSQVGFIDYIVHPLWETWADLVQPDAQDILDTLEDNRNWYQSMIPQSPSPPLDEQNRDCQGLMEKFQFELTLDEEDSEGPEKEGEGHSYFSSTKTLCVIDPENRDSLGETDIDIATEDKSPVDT

inhibition at 1 µM [%]	Structure (SMILES)
92	[O-][S+]1CCc2nc(N3CCC(c4ccncc4)CC3)nc(NC3CCOCC3)c21 (stereo not shown) [Example 63]
92	[O-][S+]1CCc2nc(N3CCC(c4ccccc4F)CC3)nc(NC3CCOCC3)c21 (stereo not shown) [Example 88]
92	[O-][S+]1CCc2nc(N3CCC(c4ccccc4F)CC3)nc(NC3(CO)CC3)c21 (stereo not shown) [Example 87]
94	[O-][S+]1CCc2nc(N3CCC(c4ccc(Br)cc4)CC3)nc(NC3(CO)CC3)c21 (stereo not shown) [Example 92, (1-{2-[4-(4-Bromophenyl)-Piperidin-1-Yl]-5-Oxo-6,7-Dihydro-5H-5λ^4-Thieno[3,2-d]Pyrimidin-4-Ylamino}-Cyclopropyl)-Methanol]
96	[O-][S+]1CCc2nc(N3CCC(c4cc(-c5ccco5)n[nH]4)CC3)nc(NC3(CO)CC3)c21 (stereo not shown) [Example 114]
95	[O-][S+]1CCc2nc(N3CCC(c4cccc(F)c4)CC3)nc(NC3(CO)CC3)c21 (stereo not shown) [Example 9]
93	CCc1[nH]c2ccc(F)cc2c1C1CCN(c2nc3c(c(NC4CCOCC4)n2)[S+]([O-])CC3)CC1 (stereo not shown) [Example 67]

same assay, conditions: test substance 1 μM; one-hour incubation with [H3]-cAMP at 30° C.

Structure (SMILES)	inhibition at 1 µM [%]
[O-][S+]1CCc2nc(N3CCC(COCc4ccccc4)(c4ccc(Cl)cc4)CC3)nc(NC3(CO)CC3)c21 (stereo not shown) [Example 309]	92
CC(C)[C@H](CO)Nc1nc(N2CCC(C(=O)c3ccc(F)cc3)(c3ccc(F)cc3)CC2)nc2c1[S+]([O-])CC2 (stereo partly shown) [Example 298]	91
CC(=O)N(C)CC1(c2ccccc2)CCN(c2nc3c(c(N[C@H]4CCC(=O)N(C)C4)n2)[S+]([O-])CC3)CC1 (stereo partly shown) [Example 274, N-methyl-N-{1-[4-(1-methyl-6-oxo-piperidin-3-ylamino)-5-oxo-6,7-dihydro-5H-5λ^4-thieno[3,2-d]pyrimidin-2-yl]-4-phenylpiperidin-4-ylmethyl}-acetamide]	94
CC(C)[C@H](CO)Nc1nc(N2CCC(CN(C)S(C)(=O)=O)(c3ccccc3)CC2)nc2c1[S+]([O-])CC2 (stereo partly shown) [Example 331]	85
CC(C)c1ccccc1OC1CCN(c2nc3c(c(NC4CCOCC4)n2)[S+]([O-])CC3)CC1 (stereo not shown) [Example 272]	95
CN1C[C@@H](Nc2nc(N3CCC(Oc4ccc(F)cc4)CC3)nc3c2[S+]([O-])CC3)CCC1=O (stereo partly shown) [Example 169]	92
[O-][S+]1CCc2nc(N3CCC(O)(c4ccc(Cl)cc4)CC3)nc(NC3(CO)CC3)c21 (stereo not shown) [Example 289]	81

Results, then the molecule that gave them:

inhibition at 1 µM [%]	Structure (SMILES)
92	Cc1nn(C)c(C)c1CNC(=O)c1cccc(C2CCN(c3nc4c(c(NC5CCOCC5)n3)[S+]([O-])CC4)CC2)c1 (stereo not shown) [Example 250]
89	COC1(c2ccc(Cl)cc2)CCN(c2nc3c(c(N[C@@H](CO)C(C)C)n2)[S+]([O-])CC3)CC1 (stereo partly shown) [Example 315]
95	Cc1cn(C)nc1CN(C)C(=O)c1ccc(C2CCN(c3nc4c(c(NC5CCOCC5)n3)[S+]([O-])CC4)CC2)cc1 (stereo not shown) [Example 226]
95	[O-][S+]1CCc2nc(N3CCC(c4nc5c(o4)CCCC5)CC3)nc(NC3CCOCC3)c21 (stereo not shown) [Example 329]
94	O=C(c1ccc(OC2CCN(c3nc4c(c(NC5CCOCC5)n3)[S+]([O-])CC4)CC2)cc1)N1CCOCC1 (stereo not shown) [Example 240]
89	CN1C[C@@H](Nc2nc(N3CCC(c4cc(-c5cccs5)[nH]n4)CC3)nc3c2[S+]([O-])CC3)CCC1=O (stereo partly shown) [Example 286]
89	[O-][S+]1CCc2nc(N3CCC(COCc4ccccc4)(c4ccc(Cl)cc4)CC3)nc(Nc3cccc(F)c3)c21 (stereo not shown) [Example 306, {2-[4-benzyloxymethyl-4-(4-chlorophenyl)-piperidin-1-yl]-5-oxo-6,7-dihydro-5H-5λ^4-thieno[3,2-d]pyrimidin-4-yl}-(3-fluorophenyl)-amine]
97	CN1C[C@@H](Nc2nc(N3CCC(c4cc(-c5ccco5)n[nH]4)CC3)nc3c2[S+]([O-])CC3)CCC1=O (stereo partly shown) [Example 190]
